Values quoted from earlier work, collected in US7498301B2, “Composition containing dipeptide of histidine and alanine for reducing uric acid and method for reducing uric acid using the dipeptide” (Lytone Enterprise, Inc., priority 2003, dated 2009).

What was measured:
[1] = low pH (<3.0)
[2] = test system: peptidase and proteases excreted from pancreas or other digestive organs

NCCC(=O)N[C@@H](Cc1cnc[nH]1)C(=O)O [carnosine, β-alanyl-L-histidine]
Stability under low pH [1]: remain intact | Digestion by peptidase and proteases [2]: resist against digestion
